In patent EP4458820A1 (Shanghai Institute of Materia Medica, Chinese Academy of …, priority 2021, dated 2023):
Values joined by “and” are separate entries in the source; they are usually repeats but may differ in a detail not shown here. Identical values can stand only once. Like-named read-outs stand apart in the source and are kept apart here.

Assays:
thyroid axis = assay: inhibitory effect on the thyroid axis in C57 mice; type: in vivo; conditions: administered at high doses
[1] = tested on: THRβ receptor downstream genes; assay: acute pharmacodynamic evaluation: THRβ receptor downstream gene expression in liver after single administration; type: in vivo, C57 mice
Source text: (§1) Mice or rats were used for single oral administration, and liver and heart were taken at 3 time points after administration to detect the expression of THRβ receptor downstream genes (DIO1, ME, CYP7α1, LDLR) in the target organ-liver, and to detect the expression of THRβ receptor downstream genes (DIO1, MHCα) in the organ involved in toxicity-heart.

MHCα = assay: preliminary safety assessment: MHCα expression in the heart of C57 mice; type: in vivo; conditions: after administration
Source text: as §1

[2] = pharmacokinetic studies in mice; type: in vivo; parameters: AUC(0-t) / AUClast: concentration or dose not given beside the values; conditions: for F: bioavailability p.o. versus i.v.
Method: The preliminary pharmacokinetic studies in mice or rats of the target compounds with excellent activity obtained from the above studies were conducted to investigate the pharmacokinetic properties of the compounds under oral, intraperitoneal and intravenous administration in detail, and to calculate the parameters of in vivo exposure (AUC), peak concentration (Cmax), time to peak (Tmax), half-life period (T1/2) and bioavailability (F), which would provide a clue for further structural modification and optimization of the compounds, as well as a basis for in vivo dosage design.

[3] = tested on: cardiac DIO1 and MHCα genes; assay: in vivo safety evaluation: downstream gene expression in the heart of thyroidectomized rats
Method: Normal SD rats, which underwent thyroidectomy and recovered for 1-2 weeks, were grouped by body weight and then given the test compounds or the positive compound MGL-3196. Cardiac tissues were taken after euthanasia 6 h after the administration of the drug to examine the expression of the αMHC gene in the heart after single dose of the drug.

[4] = tested on: CDAHFD feed-induced NAFLD model mice; assay: pharmacodynamic evaluation in CDAHFD feed-induced NAFLD model mice; type: in vivo; conditions: after 2 and 4 weeks of long-term administration
[5] = tested on: high-fat feed -induced golden hamster model; assay: pharmacodynamic evaluation in high-fat feed-induced golden hamster model; type: in vivo; conditions: 10 mg/kg, after 21 days of administration
[6] = tissue distribution studies in mice; type: in vivo; conditions: for concentration at 3 h / concentration at 8 h / concentration at 24 h: mouse, po
[7] = mouse, in vivo, iv, individual animal
[8] = mouse, in vivo, po, individual animal
[9] = mouse, in vivo, po, individual animal, read-out: Cmax
[10] = mouse, in vivo, po, individual animal, read-out: Tmax
[11] = mouse, in vivo, po, mean, read-out: Cmax
[12] = mouse, in vivo, po, mean, read-out: Tmax
[13] = Table 4, oral 10 mg/kg, 3 h, individual animal, 10 mg/kg
[14] = Table 4, oral 10 mg/kg, 8 h, individual animal, 10 mg/kg
[15] = Table 4, oral 10 mg/kg, 24 h, individual animal, 10 mg/kg
[16] = Table 6, oral 10 mg/kg, 3.00 h, individual animal, 10 mg/kg
[17] = Table 6, oral 10 mg/kg, 8.00 h, individual animal, 10 mg/kg
[18] = Table 6, oral 10 mg/kg, 24.0 h, individual animal, 10 mg/kg

Cc1cc(-c2ccc(F)cc2)nc2ccc(Oc3c(Cl)cc(-n4nc(C#N)c(=O)[nH]c4=O)cc3Cl)cc12 [Compound 3, 2-(3,5-Dichloro-4-((2-(4-fluorophenyl) -4-methylquinolin-6-yl)oxy)phenyl) -3,5-dioxo-2,3,4,5-tetrahydro-1,2,4-triazine-6-carbonitrile]
thyroid hormone levels (thyroid axis): did not affect
hepatic DIO1 gene expression ([1]; 3h after administration): significantly up-regulated
hepatic DIO1 gene expression ([1]; after 8 h of administration, compared with the negative control group): still effective
upregulation of MHCα in the heart (MHCα): did not result in upregulation
F [2]: 36.3%
AUClast ([2]; i.v., individual animal): 106.173 µg·h/mL and 104.125 µg·h/mL
CL_obs ([2]; i.v., individual animal): 0.67 mL/min/kg and 0.76 mL/min/kg and 0.75 mL/min/kg
T1/2 ([2]; i.v., individual animal): 5.10 h and 6.62 h
Vss_obs ([2]; i.v., individual animal): 289 mL/kg and 253 mL/kg and 315 mL/kg
CL_obs ([2]; i.v., mean): 0.73 mL/min/kg
Vss_obs ([2]; i.v., mean): 286 mL/kg
AUC(0-t) [2, 7]: 118 µg·h/mL
half-life [2, 7]: 384 min
AUC(0-t) ([2]; mouse, in vivo, iv, mean): 109 µg·h/mL
half-life ([2]; mouse, in vivo, iv, mean): 362 min
AUC(0-t) [2, 8]: 62.5 µg·h/mL
half-life [2, 8]: 259 min
Cmax [2, 9]: 9650 ng/mL
Tmax [2, 10]: 60 min
AUC(0-t) ([2]; mouse, in vivo, po, mean): 79.4 µg·h/mL
half-life ([2]; mouse, in vivo, po, mean): 283 min
Cmax [2, 11]: 10500 ng/mL
Tmax [2, 12]: 49.8 min
AUClast ([2]; p.o., individual animal): 100.901 µg·h/mL and 74.686 µg·h/mL
Cmax ([2]; p.o., individual animal): 12800 ng/mL and 9108 ng/mL
T1/2 ([2]; p.o., individual animal): 4.80 h and 5.02 h
Tmax ([2]; p.o., individual animal): 30 min

Cc1cc(C(F)(F)F)nc2ccc(Oc3c(Cl)cc(-n4nc(C#N)c(=O)[nH]c4=O)cc3Cl)cc12 [Compound 38, 2-(3,5-Dichloro-4-((2-trifluoromethyl-4-methylquinolin-6-yl)oxy)phenyl) -3,5-dioxo-2,3,4,5-tetrahydro-1,2,4-triazine-6-carbonitrile]
effects on cardiac DIO1 and MHCα genes [3]: neither compound 38 nor MGL3196 had significant effects
expression of CYP7α1, ME2, and LDLR genes in the liver ([1]; C57 mice, single administration, 10 mg/kg, after 24 h of administration): significantly up-regulated
DIO1 gene expression in the liver ([1]; C57 mice, single administration, after 8 and 24 h of administration, T3 0.5 mg/kg, compound 38 10 mg/kg): significantly up-regulated
plasma TC levels ([4]; 1 mg/kg dosage group): decreased
plasma TC levels ([4]; 10 mg/kg dosage group): decreased
serum TC/TG levels and LCL-C levels [5]: significant decrease
Heart [6, 13]: 115 ng/g and 199 ng/g and 113 ng/g
Liver [6, 13]: 3778 ng/g and 3241 ng/g and 3353 ng/g
Plasma [6, 13]: 8371 ng/mL and 7102 ng/mL and 6639 ng/mL
Heart [6, 14]: 39.9 ng/g and 72.2 ng/g and 26.4 ng/g and 63.3 ng/g
Liver [6, 14]: 582 ng/g and 895 ng/g and 264 ng/g and 729 ng/g
Plasma [6, 14]: 2473 ng/mL and 4555 ng/mL and 2005 ng/mL and 3847 ng/mL
Heart ([6]; Table 4, oral 10 mg/kg, 24 h, individual animal): BLQ
Liver [6, 15]: 29.5 ng/g and 27.8 ng/g and 14.5 ng/g and 16.3 ng/g
Plasma [6, 15]: 281 ng/mL and 192 ng/mL and 88.6 ng/mL and 93.6 ng/mL
Heart [6, 16]: 215 ng/g and 169 ng/g
Liver [6, 16]: 1478 ng/g and 1383 ng/g
Plasma [6, 16]: 5796 ng/mL and 4534 ng/mL
Heart [6, 17]: 196 ng/g and 116 ng/g
Liver [6, 17]: 614 ng/g and 469 ng/g
Plasma [6, 17]: 4487 ng/mL and 2490 ng/mL
Heart [6, 18]: 6.36 ng/g and 13.7 ng/g and 20.5 ng/g
Liver [6, 18]: 23.3 ng/g and 39.5 ng/g and 56.7 ng/g
Plasma [6, 18]: 165 ng/mL and 335 ng/mL and 412 ng/mL
concentration at 3 h ([6]; heart, 10 mg/kg, Table 4, 3 h, individual animal, read-out: Heart): 189 ng/g
concentration at 3 h ([6]; heart, 10 mg/kg, Table 4, 3 h, mean, read-out: Heart Mean): 154 ng/g
concentration at 8 h ([6]; heart, 10 mg/kg, Table 4, 8 h, mean, read-out: Heart Mean): 50.5 ng/g
concentration at 24 h ([6]; heart, 10 mg/kg, Table 4, 24 h, mean, read-out: Heart Mean): 0 ng/g
concentration at 3 h ([6]; heart, 10 mg/kg, Table 6, 3.00 h, individual animal, read-out: Heart): 197 ng/g
concentration at 3 h ([6]; heart, 10 mg/kg, Table 6, 3.00 h, mean, read-out: Heart Mean): 194 ng/g
concentration at 8 h ([6]; heart, 10 mg/kg, Table 6, 8.00 h, individual animal, read-out: Heart): 139 ng/g
concentration at 8 h ([6]; heart, 10 mg/kg, Table 6, 8.00 h, mean, read-out: Heart Mean): 150 ng/g
concentration at 24 h ([6]; heart, 10 mg/kg, Table 6, 24.0 h, mean, read-out: Heart Mean): 13.5 ng/g
concentration at 3 h ([6]; liver, 10 mg/kg, Table 4, 3 h, individual animal, read-out: Liver): 4300 ng/g
concentration at 3 h ([6]; liver, 10 mg/kg, Table 4, 3 h, mean, read-out: Liver Mean): 3670 ng/g
concentration at 8 h ([6]; liver, 10 mg/kg, Table 4, 8 h, mean, read-out: Liver Mean): 617 ng/g
concentration at 24 h ([6]; liver, 10 mg/kg, Table 4, 24 h, mean, read-out: Liver Mean): 22 ng/g
concentration at 3 h ([6]; liver, 10 mg/kg, Table 6, 3.00 h, individual animal, read-out: Liver): 1880 ng/g
concentration at 3 h ([6]; liver, 10 mg/kg, Table 6, 3.00 h, mean, read-out: Liver Mean): 1580 ng/g
concentration at 8 h ([6]; liver, 10 mg/kg, Table 6, 8.00 h, individual animal, read-out: Liver): 689 ng/g
concentration at 8 h ([6]; liver, 10 mg/kg, Table 6, 8.00 h, mean, read-out: Liver Mean): 591 ng/g
concentration at 24 h ([6]; liver, 10 mg/kg, Table 6, 24.0 h, mean, read-out: Liver Mean): 39.8 ng/g
concentration at 3 h ([6]; plasma, 10 mg/kg, Table 4, 3 h, individual animal, read-out: Plasma): 9340 ng/mL
concentration at 3 h ([6]; plasma, 10 mg/kg, Table 4, 3 h, mean, read-out: Plasma Mean): 7860 ng/mL
concentration at 8 h ([6]; plasma, 10 mg/kg, Table 4, 8 h, mean, read-out: Plasma Mean): 3220 ng/mL
concentration at 24 h ([6]; plasma, 10 mg/kg, Table 4, 24 h, mean, read-out: Plasma Mean): 164 ng/mL
concentration at 3 h ([6]; plasma, 10 mg/kg, Table 6, 3.00 h, mean, read-out: plasma Mean): 5260 ng/mL
concentration at 8 h ([6]; plasma, 10 mg/kg, Table 6, 8.00 h, mean, read-out: plasma Mean): 3430 ng/mL
concentration at 24 h ([6]; plasma, 10 mg/kg, Table 6, 24.0 h, mean, read-out: plasma Mean): 304 ng/mL
concentration at 3 h ([6]; 10 mg/kg, Table 6, 3.00 h, individual animal, read-out: plasma): 5450 ng/mL
concentration at 8 h ([6]; 10 mg/kg, Table 6, 8.00 h, individual animal, read-out: plasma): 3330 ng/mL
F [2]: 75.8%
AUClast ([2]; i.v., individual animal): 95.351 µg·h/mL and 95.119 µg·h/mL
CL_obs ([2]; i.v., individual animal): 0.691 mL/min/kg and 0.859 mL/min/kg and 0.856 mL/min/kg
Cmax ([2]; i.v., individual animal): 95119 ng/mL
T1/2 ([2]; i.v., individual animal): 4.30 h and 4.77 h
Vss_obs ([2]; i.v., individual animal): 220 mL/kg and 270 mL/kg and 267 mL/kg
CL_obs ([2]; i.v., mean): 0.802 mL/min/kg
Vss_obs ([2]; i.v., mean): 252 mL/kg
AUC(0-t) [2, 7]: 119 µg·h/mL
half-life [2, 7]: 236 min
Cmax ([2]; mouse, in vivo, iv, individual animal, read-out: Cmax): 95400 ng/mL
AUC(0-t) ([2]; mouse, in vivo, iv, mean): 103 µg·h/mL
half-life ([2]; mouse, in vivo, iv, mean): 260 min
AUC(0-t) [2, 8]: 162 µg·h/mL
half-life [2, 8]: 301 min
Cmax [2, 9]: 26000 ng/mL
Tmax [2, 10]: 30 min
AUC(0-t) ([2]; mouse, in vivo, po, mean): 156 µg·h/mL
half-life ([2]; mouse, in vivo, po, mean): 266 min
Cmax [2, 11]: 23100 ng/mL
Tmax [2, 12]: 49.8 min
AUClast ([2]; p.o., individual animal): 176.967 µg·h/mL and 130.466 µg·h/mL
Cmax ([2]; p.o., individual animal): 23595 ng/mL and 19689 ng/mL
T1/2 ([2]; p.o., individual animal): 4.18 h and 4.13 h
Tmax ([2]; p.o., individual animal): 60 min
